Tests used:
MOLM-13 cells = experiment: Cell proliferation assay (alamarBlue), MOLM-13; assay type: cell-based; conditions: Homo sapiens, 96 hours incubation, inhibition of cell proliferation
Description: In accordance with the invention, the capability of the substances to inhibit cell proliferation was determined Cell viability was determined using the alamarBlue® reagent (Invitrogen) in a Victor X3 Multilabel Reader (Perkin Elmer). The excitation wavelength was 530 nm and the emission wavelenth […].
The MOLM-13 cells (DSMZ, ACC 554) were sown at a concentration of 4000 cells/well in 100 μl growth medium (RPMI1640, 10% FCS) on 96-well microtitre plates.
After an overnight incubation at 37° C., the fluorescence values (CI values) were determined. The plates were then treated with various substance dilutions (1E-5 M, 3E-6 M, 1E-6M, 3E-7 M, 1E-7 M, 3E-8 M, 1E-8 M) and incubated at 37° C. for 72 (MV4-11-, LOX-IMVI cells), 96 (MOLM-13-, B16F10-, MDA-MB-431-, Caov-3 cells), 120 (MOLP-8-, KMS-12-PE cells) or 168 (LAPC-4 cells) hours. The fluorescence values (CO values) were then determined. For the data analysis, the CI values were subtracted from the CO values and the results were compared between cells treated with different dilutions of the substance or with buffer solution only. These were used to calculate the IC 50 values (substance concentration required for 50% inhibition of cell proliferation).

BRD4 (BD1) = molecular target: T1, BRD4 (BD1) (Homo sapiens, UniProt O60885); experiment: Binding assay BRD4/acetylated peptide H4 (TR-FRET protein-protein interaction assay)
T1 construct: with relatively long constructs also being possible, preferably amino acids 44-168; made in house; host or cells: E. coli
From the text: Binding Assay BRD4/Acetylated Peptide H4 (“PRO”)
To assess the BRD4 binding of the substances described in the present application, their ability to inhibit the interaction between BRD4 (BD1) and acetylated histone H4 in a dose-dependent manner was quantified (Filippakopoulos et al., Cell, 2012, 149: 214-231).
For this purpose, use was made of a time-resolved fluorescence resonance energy transfer (TR-FRET) assay which measured binding between N-terminally His6-tagged BRD4 (BD1) (amino acids 67-152, with relatively long constructs also being possible, preferably amino acids 44-168) and a synthetic acetylated histone H4 (Ac—H4) peptide having the sequence GRGK(Ac)GGK(Ac)GLGK(Ac)GGAK(Ac)RHGSGSK-biotin. The recombinant BRD4 protein-produced according to Filippakopoulos et al., Cell, 2012, 149: 214-231—was expressed in E. coli and purified by (Ni-NTA) affinity and (Sephadex G-75) size exclusion chromatography. The Ac—H4 peptide is commercially available, for example from Biosyntan (Berlin, Germany). In a typical assay, 11 different concentrations of each substance (0.1 nM, 0.33 nM, 1.1 nM, 3.8 nM, 13 nM, 44 nM, 0.15 μM, 0.51 μM, 1.7 μM, 5.9 μM and 20 μM) were measured in duplicate on the same microtitre plate. To this end, 100-fold concentrated solutions in DMSO were prepared by serial dilution (1:3.4) of a 2 mM stock solution in a clear 384-well microtitre platte (Greiner Bio-One, Frickenhausen, Germany) 50 nl of these were transferred into a black test plate (Greiner Bio-One, Frickenhausen, Germany). The test was started by addition of 2 μl of a 2.5-fold concentrated BRD4 solution (final concentration usually 10 nM in the […] of the reaction volume) in aqueous assay buffer [50 mM HEPES pH 7.5. 50 mM sodium chloride (NaCl), 0.25 mM CHAPS and 0.05% serum albumin (BSA)] to the substances in the test plate. This was followed by a 10-minute incubation step at 22° C. to pre-equilibrate putative complexes between BRD4 and the substances.
The mixture was then incubated in the dark for one hour at 22° C. and then for at least 3 hours and at most overnight at 4° C. Formation of BRD4/Ac—H4 complexes was determined by measuring the resonance energy transfer from the streptavidin-Eu cryptate to the anti-6His-XL665 antibody in the reaction. To this end, the fluorescence emission was measured at 620 nm and 665 nm after excitation at 330-350 nm in a TR-FRET measuring device, for example a Rubystar or Pherastar (both from BMG Lab Technologies, Offenburg, Germany) or a Viewlux (Perkin-Elmer). The ratio of the emission at 665 nm and at […] was used as an indicator for the amount of BRD4/Ac—H4 complexes formed.
The data obtained (ratios) were normalized, with 0% inhibition corresponding to the mean of the measured values of a set of controls (usually 32 data points) comprising all reagents. Here, 50 nl of DMSO (100%) were used instead of test substances. An inhibition of 100% corresponded to the mean of the measured values of a set of controls (usually 32 data points) comprising all reagents except for BRD4. The IC50 was determined by regression analysis based on a 4-parameter equation (minimum, maximum, IC50, Hill; Y=Max+(Min−Max)/(1+(X/IC 50)^Hill)).

Row | Compound | IC50 (MOLM-13 cells) [nM] | IC50 (BRD4 (BD1)) [nM]
1 | CNC(=O)N1N=C(c2cccc(-c3cnn(C)c3)c2)c2cc(OC)c(OC)cc2CC1C (racemic) [Example 54, (±)-7,8-dimethoxy-N,4-dimethyl-1-[3-(1-methyl-1H-pyrazol-4-yl)phenyl]-4,5-dihydro-3H-2,3-benzodiazepine-3-carboxamide] | 440 | 50
2 | CNC(=O)N1N=C(c2cccc(-c3c(C)noc3C)c2)c2cc(OC)c(OC)cc2CC1C (racemic) [Example 31, (±)-1-[3-(3,5-Dimethylisoxazol-4-yl)phenyl]-7,8-dimethoxy-N,4-dimethyl-4,5-dihydro-3H-2,3-benzodiazepine-3-carboxamide] | 270 | 180
3 | CNC(=O)N1N=C(c2ccc(Cl)cc2)c2cc(OCCCN3CCN(C)CC3)ccc2C[C@@H]1C [Example 164.2, (4S)-1-(4-chlorophenyl)-N,4-dimethyl-8-[3-(4-methylpiperazin-1-yl)propoxy]-4,5-dihydro-3H-2,3-benzodiazepine-3-carboxamide] | 420 | 60
4 | CNC(=O)N1N=C(c2ccc(-c3ccc(F)c(C#N)c3)cc2)c2cc(OC)c(OC)cc2CC1C (racemic) [Example 75, (±)-1-(3′-cyano-4′-fluorobiphenyl-4-yl)-7,8-dimethoxy-N,4-dimethyl-4,5-dihydro-3H-2,3-benzodiazepine-3-carboxamide] | 660 | 130
5 | CNC(=O)N1N=C(c2ccc(Cl)cc2)c2ccc(N3CCOCC3)cc2CC1C (racemic) [Example 233, (±)-1-(4-chlorophenyl)-N,4-dimethyl-7-(morpholin-4-yl)-4,5-dihydro-3H-2,3-benzodiazepine-3-carboxamide] | – | 3450
6 | CNC(=O)N1N=C(c2ccc(Cl)cc2)c2ccc(-c3ccc(O)nc3)cc2CC1C (racemic) [Example 241, (±)-1-(4-chlorophenyl)-7-(6-hydroxypyridin-3-yl)-N,4-dimethyl-4,5-dihydro-3H-2,3-benzodiazepine-3-carboxamide] | – | 2560
7 | CNC(=O)N1N=C(c2ccc(Cl)cc2)c2ccc(N3CCN(C)CC3)cc2CC1C (racemic) [Example 236, (±)-1-(4-chlorophenyl)-N,4-dimethyl-7-(4-methylpiperazin-1-yl)-4,5-dihydro-3H-2,3-benzodiazepine-3-carboxamide] | – | 2200
8 | CNC(=O)N1N=C(c2ccc(Cl)cc2)c2ccc(N3CCCCC3=O)cc2CC1C (racemic) [Example 231, (±)-1-(4-chlorophenyl)-N,4-dimethyl-7-(2-oxopiperidin-1-yl)-4,5-dihydro-3H-2,3-benzodiazepine-3-carboxamide] | – | 3370
9 | CNC(=O)N1N=C(c2ccc(N3CCN(C)CC3)cc2)c2cc(O)c(O)cc2CC1C (racemic) [Example 199, (±)-7,8-Dihydroxy-N,4-dimethyl-1-[4-(4-methylpiperazin-1-yl)phenyl]-4,5-dihydro-3H-2,3-benzodiazepine-3-carboxamide] | – | 1020
10 | CNC(=O)N1N=C(c2ccc(N3CCN(S(C)(=O)=O)CC3)cc2)c2cc(Cl)c(OC(F)(F)F)cc2CC1C (racemic) [Example 214, (±)-8-chloro-N,4-dimethyl-1-{4-[4-(methylsulphonyl)piperazin-1-yl]phenyl}-7-(trifluoromethoxy)-4,5-dihydro-3H-2,3-benzodiazepine-3-carboxamide] | – | 1230

The next lines start with the values.

Row | IC50 (MOLM-13 cells) [nM] | IC50 (BRD4 (BD1)) [nM] | Compound
11 | 260 | 30 | CNC(=O)N1N=C(c2ccc(N3CCN(C)CC3)cc2)c2cc(OC)c(OC(F)F)cc2C[C@@H]1C [Example 163.2, (4S)-7-(difluoromethoxy)-8-methoxy-N,4-dimethyl-1-[4-(4-methylpiperazin-1-yl)phenyl]-4,5-dihydro-3H-2,3-benzodiazepine-3-carboxamide]
12 | – | 3770 | CNC(=O)N1N=C(c2ccc(N3CCC(OC)CC3)cc2)c2cc(OC)c(OC)cc2C[C@H]1C [Example 179.1, (4R)-7,8-dimethoxy-1-[4-(4-methoxypiperidin-1-yl)phenyl]-N,4-dimethyl-4,5-dihydro-3H-2,3-benzodiazepine-3-carboxamide]
13 | – | 6540 | CC[C@@H]1Cc2cc(OC)c(OC)cc2C(c2ccc(N3CCNCC3)cc2)=NN1C(=O)NC [Example 202.2, (4R)-4-ethyl-7,8-dimethoxy-N-methyl-1-[4-(piperazin-1-yl)phenyl]-4,5-dihydro-3H-2,3-benzodiazepine-3-carboxamide]
14 | – | 930 | CCC1Cc2cc(OC)c(OC)cc2C(c2ccc(N3CCS(=O)(=O)CC3)cc2)=NN1C(=O)NC (racemic) [Example 206, (±)-1-[4-(1,1-dioxidothiomorpholin-4-yl)phenyl]-4-ethyl-7,8-dimethoxy-N-methyl-4,5-dihydro-3H-2,3-benzodiazepine-3-carboxamide]
15 | – | 1370 | CCC1Cc2cc(OC)c(OC)cc2C(c2ccc(N3CCN(C)CC3)cc2)=NN1C(=O)NC (racemic) [Example 201, (±)-4-ethyl-7,8-dimethoxy-N-methyl-1-[4-(4-methylpiperazin-1-yl)phenyl]-4,5-dihydro-3H-2,3-benzodiazepine-3-carboxamide]
16 | – | 1230 | CCC1Cc2cc(OC)c(OC)cc2C(c2ccc(N3CCNCC3)cc2)=NN1C(=O)NC (racemic) [Example 202, (±)-4-ethyl-7,8-dimethoxy-N-methyl-1-[4-(piperazin-1-yl)phenyl]-4,5-dihydro-3H-2,3-benzodiazepine-3-carboxamide]
17 | – | 300 | CNC(=O)N1N=C(c2ccc(N3CCNCC3)cc2)c2cc(Cl)c(OC(F)(F)F)cc2CC1C (racemic) [Example 211, (±)-8-chloro-N,4-dimethyl-1-[4-(piperazin-1-yl)phenyl]-7-(trifluoromethoxy)-4,5-dihydro-3H-2,3-benzodiazepine-3-carboxamide]
18 | – | 5300 | CNC(=O)N1N=C(c2ccc(N3C[C@@H](C)N[C@@H](C)C3)cc2)c2cc(OC)c(OC)cc2C[C@@H]1C [Example 198, (4S)-1-{4-[(3R,5S)-3,5-dimethylpiperazin-1-yl]phenyl}-7,8-dimethoxy-N,4-dimethyl-4,5-dihydro-3H-2,3-benzodiazepine-3-carboxamide]
19 | – | 1980 | CCC1Cc2cc(OC)c(OC)cc2C(c2ccc(-c3ccc(F)cc3)cc2)=NN1C(=O)NC (racemic) [Example 221, (±)-4-ethyl-1-(4′-fluorobiphenyl-4-yl)-7,8-dimethoxy-N-methyl-4,5-dihydro-3H-2,3-benzodiazepine-3-carboxamide]
20 | – | 320 | CCC1Cc2cc(OC)c(OC)cc2C(c2ccc(-c3c(C)noc3C)cc2)=NN1C(=O)NC (racemic) [Example 223, (±)-1-[4-(3,5-dimethyl-1,2-oxazol-4-yl)phenyl]-4-ethyl-7,8-dimethoxy-N-methyl-4,5-dihydro-3H-2,3-benzodiazepine-3-carboxamide]
